According to patent US10624343B2, “Phenyl urea compound, and use thereof” (Sumitomo Chemical Company, Limited, priority 2016, dated 2020):

System: cucumber phytophthora blight fungi (Phytophthora capsici)
Assay: Test for controlling cucumber phytophthora blight fungi (titer plate growth test)
Type: cell-based
Conditions: 4.5 mg in 100 μL dimethyl sulfoxide, 1 μL portion plus 150 μL PDB medium with zoospores; 27° C., three days; absorbance at 600 nm; Efficacy=100×(X−Y)/X
Description: Test example 1: Test for controlling cucumber phytophthora blight fungi (Phytophthora capsici)
Four point five (4.5) milligrams of the present compound was diluted with 100 μL of dimethyl sulfoxide. One (1) μL portion of the diluted liquid was dispensed into a titer plate (96 wells), and thereto was then dispensed 150 μL of a potato dextrose broth medium (PDB medium) containing zoospores of cucumber phytophthora blight fungi (Phytophthora capsici). This plate was cultured at 27° C. for three days, thereby allowing the cucumber phytophthora blight fungi to undergo proliferation, and the absorbance at 600 nm of each well of the titer plate was then measured to determine a degree of growth of the cucumber phytophthora blight fungi. The efficacy was calculated from the determined degree of growth by the below-mentioned “Equation 1”. As a result, the efficacy of the Present compound was 90% or more. Efficacy=100×(X−Y)/X “Equation 1” where X: Degree of fungal growth in non-treated area Y: Degree of fungal growth in treated area
In the test example, a non-treated area means an area in which a test was conducted in the same manner, except that dimethyl sulfoxide was dispensed in place of the present compound diluted with dimethyl sulfoxide.

SMILES	efficacy
CCOC(=O)COc1ncccc1Oc1cc(NC(C)=O)c(F)cc1Cl [N-[4-chloro-2-fluoro-5-{2-(ethoxycarbonyl)methoxy-3-pyridyloxy}phenyl]acetamide]	less than 50%
CCOC(=O)COc1ncccc1Oc1cc(NC(N)=O)c(F)cc1Cl [Present compound]	≥ 90%
